This data set has as its system CCRIS mutagenicity, Ames/micronucleus/aberration tests. Put plainly: CCRIS mutagenicity studies.
Setting [1] is: Test System: AMES SALMONELLA TYPHIMURIUM, Strain/Indicator: TA98, Metabolic Activation: NONE, Method: STANDARD PLATE.
[2] abbreviates: Test System: AMES SALMONELLA TYPHIMURIUM, Strain/Indicator: TA100, Metabolic Activation: NONE, Method: STANDARD PLATE.
The mark [3] stands for this setting: Test System: AMES SALMONELLA TYPHIMURIUM, Strain/Indicator: TA100, Metabolic Activation: RAT, LIVER, S-9, AROCLOR 1254, Method: STANDARD PLATE.
[4] abbreviates: Test System: AMES SALMONELLA TYPHIMURIUM, Strain/Indicator: TA1535, Metabolic Activation: RAT, LIVER, S-9, AROCLOR 1254, Method: STANDARD PLATE.
Setting [5] is: Test System: AMES SALMONELLA TYPHIMURIUM, Strain/Indicator: TA1538, Metabolic Activation: NONE, Method: STANDARD PLATE.
[6] abbreviates: Test System: AMES SALMONELLA TYPHIMURIUM, Strain/Indicator: TA98, Metabolic Activation: NONE, Method: PREINCUBATION
[7] abbreviates: Test System: AMES SALMONELLA TYPHIMURIUM, Strain/Indicator: TA100, Metabolic Activation: NONE, Method: PREINCUBATION
Where [8] appears, read: Test System: AMES SALMONELLA TYPHIMURIUM, Strain/Indicator: TA98, Metabolic Activation: RAT, LIVER, S-9, AROCLOR 1254, Method: STANDARD PLATE.
Setting [9] is: Test System: AMES SALMONELLA TYPHIMURIUM, Strain/Indicator: TA1538, Metabolic Activation: RAT, LIVER, S-9, AROCLOR 1254, Method: STANDARD PLATE.

Each structure is given as a SMILES string. The source made the active and inactive calls. No rule for the calls is given here.

For `Nc1ccc([N+](=O)[O-])c(O)c1`, the mutagenic call by setting is: under setting [1], “inactive; negative”; under setting [2], “inactive; negative”; under setting [3], “inactive; negative”; (Test System: AMES SALMONELLA TYPHIMURIUM, Strain/Indicator: TA1535, Metabolic Activation: NONE, Method: STANDARD PLATE) “inactive; negative”; under setting [4], “inactive; negative”; (Test System: AMES SALMONELLA TYPHIMURIUM, Strain/Indicator: TA1537, Metabolic Activation: NONE, Method: STANDARD PLATE) “inactive; negative”. Besides, the mutagenic call (Test System: AMES SALMONELLA TYPHIMURIUM, Strain/Indicator: TA1537, Metabolic Activation: RAT, LIVER, S-9, AROCLOR 1254, Method: STANDARD PLATE) is “inactive; negative” and the mutagenic call under setting [5] is “inactive; negative”.

In the case of `O=[N+]([O-])c1ccc(Nc2ccc(Cl)cc2)cc1`, the mutagenic call by setting is: under setting [6], “inactive; negative”; (Test System: AMES SALMONELLA TYPHIMURIUM, Strain/Indicator: TA98, Metabolic Activation: RAT, LIVER, S-9, AROCLOR 1254, Method: PREINCUBATION) “active; positive”.

Turning to `C=CC(=O)NCNC(=O)C=C`, the mutagenic call (Test System: AMES SALMONELLA TYPHIMURIUM, Strain/Indicator: TA97, Metabolic Activation: HAMSTER, LIVER, S-9, AROCLOR 1254 (10%), Method: PREINCUBATION) is “inactive; negative”; the mutagenic call (Test System: AMES SALMONELLA TYPHIMURIUM, Strain/Indicator: TA97, Metabolic Activation: NONE, Method: PREINCUBATION) was “inactive; negative”; the mutagenic call (Test System: AMES SALMONELLA TYPHIMURIUM, Strain/Indicator: TA97, Metabolic Activation: RAT, LIVER, S-9, AROCLOR 1254 (10%), Method: PREINCUBATION) is “inactive; negative”; the mutagenic call (Test System: AMES SALMONELLA TYPHIMURIUM, Strain/Indicator: TA98, Metabolic Activation: HAMSTER, LIVER, S-9, AROCLOR 1254 (10%), Method: PREINCUBATION) was “inactive; negative”; the mutagenic call under setting [6] was “inactive; negative”; the mutagenic call (Test System: AMES SALMONELLA TYPHIMURIUM, Strain/Indicator: TA98, Metabolic Activation: RAT, LIVER, S-9, AROCLOR 1254 (10%), Method: PREINCUBATION) was “inactive; negative”. Also, the mutagenic call (Test System: AMES SALMONELLA TYPHIMURIUM, Strain/Indicator: TA100, Metabolic Activation: HAMSTER, LIVER, S-9, AROCLOR 1254 (5, 10 OR 30%), Method: PREINCUBATION) was “inactive; negative”; the mutagenic call under setting [7] is “inactive; negative”; the mutagenic call (Test System: AMES SALMONELLA TYPHIMURIUM, Strain/Indicator: TA100, Metabolic Activation: RAT, LIVER, S-9, AROCLOR 1254 (10%), Method: PREINCUBATION) was “inactive; negative”; the mutagenic call (Test System: AMES SALMONELLA TYPHIMURIUM, Strain/Indicator: TA1535, Metabolic Activation: HAMSTER, LIVER, S-9, AROCLOR 1254 (10%), Method: PREINCUBATION) is “active; positive”; the mutagenic call (Test System: AMES SALMONELLA TYPHIMURIUM, Strain/Indicator: TA1535, Metabolic Activation: NONE, Method: PREINCUBATION) was “inactive; negative”; the mutagenic call (Test System: AMES SALMONELLA TYPHIMURIUM, Strain/Indicator: TA1535, Metabolic Activation: RAT, LIVER, S-9, AROCLOR 1254 (10%), Method: PREINCUBATION) was “inactive; negative”.

For the compound `CC(C)CC(NC(=O)COc1ccc(Cl)cc1Cl)C(=O)O` (configuration not stated), the mutagenic call reads like this: (Test System: AMES SALMONELLA TYPHIMURIUM, Strain/Indicator: TA97, Metabolic Activation: RAT, LIVER, S-9, AROCLOR 1254, Method: STANDARD PLATE) “inactive; negative”; (Test System: AMES SALMONELLA TYPHIMURIUM, Strain/Indicator: TA97, Metabolic Activation: WOODCHUCK, LIVER, S-9, 3-METHYLCHOLANTHRENE, Method: STANDARD PLATE) “inactive; negative”; under setting [8], “inactive; negative”; (Test System: AMES SALMONELLA TYPHIMURIUM, Strain/Indicator: TA98, Metabolic Activation: WOODCHUCK, LIVER, S-9, 3-METHYLCHOLANTHRENE, Method: STANDARD PLATE) “inactive; negative”; under setting [3], “inactive; negative”; (Test System: AMES SALMONELLA TYPHIMURIUM, Strain/Indicator: TA100, Metabolic Activation: WOODCHUCK, LIVER, S-9, 3-METHYLCHOLANTHRENE, Method: STANDARD PLATE) “inactive; negative”. In addition, the mutagenic call by setting is: under setting [4], “inactive; negative”; (Test System: AMES SALMONELLA TYPHIMURIUM, Strain/Indicator: TA1535, Metabolic Activation: WOODCHUCK, LIVER, S-9, 3-METHYLCHOLANTHRENE, Method: STANDARD PLATE) “inactive; negative”; under setting [9], “inactive; negative”; (Test System: AMES SALMONELLA TYPHIMURIUM, Strain/Indicator: TA1538, Metabolic Activation: WOODCHUCK, LIVER, S-9, 3-METHYLCHOLANTHRENE, Method: STANDARD PLATE) “inactive; negative”.

For `CCN(CC)c1ccc2cc(-c3nc4ccccc4n3C)c(=O)oc2c1`, the mutagenic call is, setting by setting: under setting [5], “inactive; negative”; under setting [9], “inactive; negative”.

As for `CCOC(=O)CCl`, the mutagenic call runs as follows: (Test System: AMES SALMONELLA TYPHIMURIUM, Strain/Indicator: TA102, Metabolic Activation: NONE, Method: STANDARD PLATE) “inactive; negative”; (Test System: AMES SALMONELLA TYPHIMURIUM, Strain/Indicator: TA2638, Metabolic Activation: NONE, Method: STANDARD PLATE) “inactive; negative”; (Test System: E. COLI, Strain/Indicator: WP2 (PKM101), Metabolic Activation: NONE, Method: STANDARD PLATE) “inactive; negative”; (Test System: E. COLI, Strain/Indicator: WP2 UVRA (PKM101), Metabolic Activation: NONE, Method: STANDARD PLATE) “inactive; negative”.

Take `O=C1CCC(=O)N1c1ccc(Cl)c(Cl)c1`: the mutagenic call runs as follows: under setting [1], “inactive; negative”; under setting [8], “inactive; negative”; under setting [2], “inactive; negative”; under setting [3], “inactive; negative”.

As for `Brc1cc(-c2cc(Br)c(Br)c(Br)c2)cc(Br)c1Br`, for the setting “Test System: CHINESE HAMSTER V-79, Strain/Indicator: V-79 (HGPRT)/6-THIOGUANINE, Metabolic Activation: NONE”, the mutagenic call is “inactive; negative”.

Consider `O=C(O)c1c(Cl)cccc1Cl`, for which the mutagenic call under setting [6] is “inactive; negative”; the mutagenic call (Test System: AMES SALMONELLA TYPHIMURIUM, Strain/Indicator: TA98, Metabolic Activation: RAT LIVER S-9, PCB, Method: PREINCUBATION) was “inactive; negative”; the mutagenic call under setting [7] was “inactive; negative”; the mutagenic call (Test System: AMES SALMONELLA TYPHIMURIUM, Strain/Indicator: TA100, Metabolic Activation: RAT LIVER S-9, PCB, Method: PREINCUBATION) was “inactive; negative”; the mutagenic call (Test System: AMES SALMONELLA TYPHIMURIUM, Strain/Indicator: TA104, Metabolic Activation: NONE, Method: PREINCUBATION) is “inactive; negative”; the mutagenic call (Test System: AMES SALMONELLA TYPHIMURIUM, Strain/Indicator: TA104, Metabolic Activation: RAT LIVER S-9, PCB, Method: PREINCUBATION) was “inactive; negative”. Also, the mutagenic call is, setting by setting: (Test System: E.COLI, Strain/Indicator: WP2 UVRA, Metabolic Activation: NONE, Method: PREINCUBATION) “inactive; negative”; (Test System: E.COLI, Strain/Indicator: WP2 UVRA, Metabolic Activation: RAT LIVER S-9, PCB, Method: PREINCUBATION) “inactive; negative”.

On to `C=CCSSSCC=C`, for which, where the note is “Test System: UDS RAT HEPATOCYTES, Strain/Indicator: THY INCORP, Metabolic Activation: NONE, Method: AUTORADIOGRAPHY”, the mutagenic call was “inactive; negative”.

The values are drawn from PubChem BioAssay AID1259407 (Chemical Carcinogenesis Research Information System (CCRIS), 2018).
